# According to paper PMC10602061 (Research Square, 2023):
# Ends that are not written are not given here.
# Experiments:
# [1] = tested on: triple-negative breast cancer (TNBC); conditions: triple-negative breast cancer (TNBC) model; cited from earlier work
# From the text: (§1) Chemokinostatin-1 (CKS1) is a 24-mer peptide originally discovered as an anti-angiogenic peptide. Karagiannis and Popel developed a computational method to identify anti-angiogenic sequences contained in the human proteome and discovered common sequences conserved within protein domains contained in angiogenesis-related proteins. CKS1 is derived from a sequence shared in the CXC chemokine family.
# [2] = tested on: glioma; conditions: glioma model; cited from earlier work
# From the text: as §1
# [3] = tested on: NIH/3T3 normal fibroblasts; assay: LDH release (CyQUANT LDH cytotoxicity assay); format: cell-based, murine; conditions: NIH/3T3 fibroblasts, indicated concentration of CKS1, 6 hours; N = 3
# Procedure: (§5) 1.0 × 10^4 cells were seeded in a 96-well plate and incubated overnight. The cells were washed once, and the medium was replaced with serum free media. Cells were treated with CKS1 for the indicated time and concentration. CyQUANT LDH cytotoxicity assay (Thermo Fisher Scientific) was used following the manufacturer’s instructions to measure the release of LDH. LDH release was normalized to the amount of LDH released from cells treated with lysis buffer.
# [4] = tested on: 4T1 cells; assay: Fluorescence live cell imaging, calcein-AM stained cytosol; format: cell-based, murine; conditions: 100 μM CKS1, live cell imaging
# Procedure: (§2) Fluorescence labeling of cells was performed by seeding 5.0 × 10^4 4T1 cells in a 35mm dish on a collagen-coated No. 1.5 coverslip with a 14 mm glass diameter (MatTek, Ashland, MA). After overnight incubation, the cells were washed once with serum free media and replaced with fresh serum free media. For cell membrane labeling, NR12S (R&D Systems, Minneapolis, MN, #7509) was added at a final concentration of 0.3 μM and incubated for 30 minutes. For cell cytosol labeling, Calcein-AM (Thermo Fisher Scientific, C1430) was added at a final concentration of 5 μg/mL and incubated for 10 minutes. For mitochondrial membrane labeling, JC-1 (Thermo Fisher Scientific, T3168) was added at a final concentration of 10 μg/mL and incubated for 10 minutes. For nuclear staining, Hoechst 33342 (Cell Signaling Technology, #4082) was added at a final concentration of 5 μg/mL and incubated for 10 minutes.
# (§3) Cells were imaged on either a Zeiss LSM 700 or a 3i spinning disk confocal microscope. Samples were imaged with optimized microscope settings. Z-stack, time-lapse, or multi-channel acquisition settings were adjusted based on the experimental requirements. Images were then acquired with the appropriate excitation and emission wavelengths for each fluorophore.
# (§4) Image analysis was performed using Fiji software. For each image/video, the brightness and the contrast were adjusted. […]
# [5] = tested on: 4T1 cells; assay: xCELLigence real-time cell viability assay (RTCA); format: cell-based, murine; conditions: serum free media, representative of N = 3
# Procedure: 3,000 cells were seeded in the wells of an xCELLigence RTCA E-plate 16 (Agilent, Santa Clara, CA). After the cells adhered to the plate, the media was replaced with serum free media, and the cells were treated with CKS1 at the indicated concentrations. The viability of the cells was monitored using the xCELLigence RTCA analyzer (Agilent).
# [6] = tested on: caspase-3 in 4T1 cells; assay: Caspase-3 activity assay in cell lysate; format: cell-based, murine; conditions: 100 μM CKS1, indicated time, fluorescence divided by protein concentration, N = 3
# Procedure: 1.0 × 10^4 4T1 cells were seeded in 96-well plates and incubated overnight. After CKS1 treatment, the cells were lysed using lysis buffer (Cell Signaling Technology, #7018). The activity of caspase-3 in the cell lysate was quantified using the caspase-3 activity assay kit (Cell Signaling Technology, #5723) following the manufacturer’s instructions. Briefly, the cell lysate was incubated with a substrate of caspase-3 which was designed to emit fluorescence when cleaved. After incubation, the fluorescence was measured using a plate reader. The protein concentration of the cell lysate was quantified using the DC protein assay kit (Bio-Rad, Hercules, CA). The caspase-3 activity was divided by the protein concentration to obtain the caspase-3 activity per μg/mL protein in the cell lysate.
# [7] = tested on: 4T1 cells; assay: JC-1 mitochondrial membrane potential imaging; format: cell-based, murine; conditions: 100 μM CKS1, live cell imaging, 25 cells, representative of N = 3
# Procedure: as §2, §3, §4
# [8] = tested on: human umbilical vein endothelial cells (HUVECs); assay: LDH release (CyQUANT LDH cytotoxicity assay); format: cell-based; conditions: indicated concentration of CKS1, 6 hours, N = 3
# Procedure: as §5
# [9] = tested on: 4T1 cells; assay: Transmission electron microscopy of cell morphology; format: cell-based, murine; conditions: 100 μM CKS1, 30 minutes
# Procedure: Samples were fixed in 2.5% glutaraldehyde, 3 mM MgCl2 in 0.1 M sodium cacodylate buffer, pH 7.2 overnight at 4°C. After buffer rinse, samples were postfixed in 2% osmium tetroxide in 0.1 M sodium cacodylate for at least one hour (no more than two) on ice in the dark. After osmium, samples were rinsed in 0.1 M Maleate buffer (pH 6.2), followed by uranyl acetate in 0.1 M Maleate (0.22 μm filtered, 1 h, dark), dehydrated in a graded series of ethanol and embedded in Epon (PolySci) resin. Samples were polymerized at 60°C overnight. Thin sections, 60 to 90 nm, were cut with a diamond knife on a Leica UCT ultramicrotome and picked up with 2×1 mm Formvar copper slot grids. Grids were stained with 2% uranyl acetate (aq.) followed by lead citrate and observed with a Hitachi 7600 TEM at 80 kV. Images were captured with an AMT CCD XR80 (8-megapixel camera - side mount AMT XR80 – high-resolution highspeed camera).
substance,measurement,setting,value
"NGRKACLNPASPIVKKIIEKMLNS-NH2 [CKS1, Chemokinostatin-1]",Suppression of tumor growth,[1],efficacy in suppressing tumor growth was demonstrated
same,Suppression of tumor growth,[2],efficacy in suppressing tumor growth was demonstrated
same,Cell death (release of LDH) in non-cancerous cells,[3],did not induce cell death
same,Events after treatment in calcein-AM stained cells,[4],influx of the surrounding media into the cells
same,Time after treatment at which cell death (reduction in cell index) was observed,"[5]; 4T1 cells, 3,000 cells per well",≤ 1 h
same,Dose dependence of cell death (reduction in cell index),[5]; 4T1 cells,dose-dependent
same,Activity of caspase-3,[6],increased
same,Mitochondrial membrane potential (JC-1 green/red fluorescence),[7],rapidly diminishes the mitochondrial membrane potential
same,Cell death (release of LDH) in non-cancerous cells,[8],did not induce cell death
same,Cell membrane integrity by electron microscopy,[9],ruptured
same,Nuclear membrane integrity by electron microscopy,[9],not ruptured
